Data taken from patent US4769374A, “Tetrahydroisoquinoline ethyl esters of 1,4-dihydropyridines and antihypertensive compositions” (Poli Industria Chimica S.p.A., priority 1984, dated 1988).

What was measured:
[1] = test system: spontaneous hypertensive rats (systolic pressure of the caudal artery); assay: Antihypertensive activity per os in spontaneous hypertensive rats; format: in vivo, rat; conditions: 3 mg/kg p.o., percentage of the decrease of the systolic pressure
Experimental: The antihypertensive activity was determined by administering spontaneous hypertensive rats with the compounds of the invention, by oral route, as a suspension in carboxymethylcellulose containing 0.5% of physiologic solution. […] The obtained results are reported in Table 2, and are expressed as the percentage of the decrease of the sistolic pressure after treatment.

in vivo = conditions: mouse, mice of both sexes, oral, day 14 of observation
Experimental: The acute toxicity was determined on mice of both sexes upon oral administration of the compounds to be tested as a suspension in carboxymethylcellulose containing 0.5% of physiologic solution, and it was expressed as an LD50 value at day 14 of observation.

Compound | Pressure variations (pressure time 0 - less pressure after administration), 15 min. [1] [%] | Pressure variations (pressure time 0 - less pressure after administration), 1 h [1] [%] | Pressure variations (pressure time 0 - less pressure after administration), 3 h [1] [%] | Pressure variations (pressure time 0 - less pressure after administration), 5 h [1] [%] | LD50 at 336 h (in vivo) [mg/kg]
CC1=C(C(=O)OCCN2CCc3ccccc3C2)C(c2cccc([N+](=O)[O-])c2)C(C(=O)OC(C)C)=C(C)N1 (stereo not drawn) [I, R = CH(CH3)2] | 39 ± 7.6 | 38 ± 6.9 | 18 ± 6.1 | 2 ± 3.1 | 1000
CCOC(=O)C1=C(C)NC(C)=C(C(=O)OCCN2CCc3ccccc3C2)C1c1cccc([N+](=O)[O-])c1 (stereo not drawn) [I, R = C2 H5] | 43 ± 10.2 | 31 ± 7.1 | 22 ± 9.4 | 11 ± 6.9 | 1000
COC(=O)C1=C(C)NC(C)=C(C(=O)OCCN2CCc3ccccc3C2)C1c1cccc([N+](=O)[O-])c1.Cl (stereo not drawn) [I, R = CH3, 2-(1,2,3,4-Tetrahydro-isoquinoline-2-yl)ethyl 1,4-dihydro-2,6-dimethyl-4-(3-nitrophenyl)-5-methoxycarbonyl-pyridine-3-carboxylate, mono-hydrochloride] | 54 ± 6.4 | 86 ± 7.3 | 73 ± 12.8 | 49 ± 8.7 | 1000
COC(=O)C1=C(C)NC(C)=C(C(=O)OCCN(C)Cc2ccccc2)C1c1cccc([N+](=O)[O-])c1 (stereo not drawn) [Nicardipine, reference compound] | 49 ± 11.3 | 52 ± 9.7 | 36 ± 6.2 | 21 ± 5.8 | 350
COC(=O)C1=C(C)NC(C)=C(C(=O)OC)C1c1ccccc1[N+](=O)[O-] [Nifedipine, reference compound] | 41 ± 5.4 | 23 ± 6.1 | 12 ± 4.3 | 9 ± 5.6 | 
